Values quoted from earlier work, collected in patent US20170042143A1, “ANIONIC POLYVINYL ALCOHOL COPOLYMER AS PROTECTIVE COLLOID FOR PESTICIDAL POLYUREA MICROCAPSULES” (BASF SE, priority 2014, published 2017).

Settings: at 20° C.

Cc1ccccc1CO[C@@H]1C[C@@]2(C(C)C)CC[C@]1(C)O2 (racemic) [Cinmethylin]
solubility in water: about 0.06 g/l
